Test results published in patent US11866509B2, “Humanized antibodies against CEACAM1” (Famewave Ltd., priority 2014, dated 2024).

Assays:
[1] = system: CEACAM1 expression on sk-mel-2 cells; assay: CEACAM1 extracellular staining by FACS, W.T. B-Raf mutated N-Ras cells; type: cell-based, human; settings: 1 μM
Method: Volume equivalents of DMSO (vehicle) were used as control. […] Cells were then analyzed for CEACAM1 protein expression by FACS as described above. Vemurafenib-resistant cell lines were generated by gradual increase of the inhibitor's concentration in culture, up to 0.32 μM. […] Cells were then tested for CEACAM1 expression using MRG1 (murine antibody to human CEACAM1) in flow cytometry as described above. Total RNA was extracted with TRIZOL and cDNA was generated with a reverse transcriptase, according to routine protocols.

[2] = system: B-Raf V600E cell samples (526mel, 624mel); assay: T-cell induced killing of melanoma cells, LDH release; type: cell-based, human; settings: 1 μM, effector-target ratio 5:1, overnight
Method: More specifically, whereas only 50% ( 3/6) of the melanoma cells having a wild type B-Raf, i.e. a valine in position 600, expressed detectable levels of CEACAM1 (Ct of 36 and less), 100% (18/18) of the melanoma cells having a mutated B-Raf, i.e. a glutamic acid in position 600, expressed detectable levels of CEACAM1 (Ct of 36 and less). • B. CEACAM1 extracellular staining of cancer cells treated with B-Raf or MEK inhibitors. […] At each time point, CEACAM1 expression on the cells was determined by FACS. Volume equivalents of DMSO (vehicle) were used as control. […] Inhibitor-resistant cancer cells show increase in CEACAM1 expression and restored activity of MAPK pathway. Two vemurafenib-sensitive B-Raf V600E cell samples (526mel, 624mel) and vemurafenib-resistant cell lines derived therefrom were incubated for 2 days with 1 μM vemurafenib. Cells were then analyzed for CEACAM1 protein expression by FACS as described above. […] MAPK activity was measured in vemurafenib-sensitive and vemurafenib-resistant B-Raf V600E (624mel) cell samples by immunoblotting for phosphorylated ERK1/2 (pERK, Thr202/Tyr204), total ERK1/2 and actin after 24 hours of exposure to 160 nM vemurafenib. […] Initial vemurafenib concentration was 0.01 of the determined IC50 (0.64 nM). […] Cell killing was determined by LDH release. […]

[3] = molecular target: T1, CEACAM1 (Homo sapiens, UniProt P13688); settings: WO 2010/125571, WO 2013/054331; cited from earlier work
T1 sequence (P13688 35-526): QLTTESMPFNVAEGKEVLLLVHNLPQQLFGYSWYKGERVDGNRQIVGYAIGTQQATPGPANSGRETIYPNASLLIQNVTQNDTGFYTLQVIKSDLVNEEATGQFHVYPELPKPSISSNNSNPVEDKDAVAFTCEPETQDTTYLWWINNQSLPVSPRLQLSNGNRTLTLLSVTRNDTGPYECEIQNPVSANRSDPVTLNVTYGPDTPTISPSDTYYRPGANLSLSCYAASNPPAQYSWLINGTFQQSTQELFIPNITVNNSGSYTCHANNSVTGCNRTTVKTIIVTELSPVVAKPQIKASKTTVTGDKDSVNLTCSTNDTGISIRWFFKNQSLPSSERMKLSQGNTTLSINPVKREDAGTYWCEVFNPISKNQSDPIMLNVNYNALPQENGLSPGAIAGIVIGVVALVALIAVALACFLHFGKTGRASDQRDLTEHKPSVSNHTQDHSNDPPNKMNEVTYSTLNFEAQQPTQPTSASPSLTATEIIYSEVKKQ

CCCS(=O)(=O)Nc1ccc(F)c(C(=O)c2c[nH]c3ncc(-c4ccc(Cl)cc4)cc23)c1F [vemurafenib]
effect on CEACAM1 expression levels [1]: no effect
sensitization to cytotoxic T cells [2]: significantly sensitizes melanoma cells to cytotoxic T cells

B1: CM-10: chimeric anti-CEACAM-1 antibody disclosed in WO 2013/054331 (antibody, V domains shown)
VH: QVQLQQSGAELVRPGTSVKVSCKASGYAFTNNLIEWVKQRPGQGLEWIGVINPGSGDTNYNEKFKGKATLTADKSSNTAYMQLSSLTSDDSAVYFCARGDYYGGFAVDYWGQGTSVTVSS
VL: DIQMTQTTSSLSASLGDRVTISCRTSQDIGNYLNWYQQKPDGTVKLLIYYTSRLHSGVPSRFSGSGSGTDYSLTISNLEQEDIATYFCQQGKSLPRTFGGGTKLEIK
selectivity to CEACAM1 [3]: highly selective to CEACAM1
